From patent US8361968B2 (Takeda Pharmaceutical Company Limited, priority 2002, dated 2013) come the findings set out here.

Assay [1] addresses T1, hOT7T175 (Homo sapiens, UniProt Q969F8, L364H). Description: hOT7T175 receptor binding activity: binding inhibition of Cy-5-labeled metastin (40-54) on hOT7T175-expressed CHO cells. Also on record: expressed in transfected cells; host or cells: CHO cells.
Assay [2] deals with T1, hOT7T175. Put plainly: Intracellular Ca ion level-increasing activity using FLIPR in hOT7T175/CHO. The format is cell-based. More on the design: expressed in transfected cells; host or cells: CHO/dhfr- cells, obtained from ATCC. As to conditions: relative, Metastin (1-54) = 1.

Where “and” joins values, the source holds several entries; their conditions need not be identical. Equal entries are not always repeated. Square brackets hold non-standard residues; d marks the D form. Peptide text beside a SMILES is read from it. Arg(Me) = CNC(=N)NCCC[C@H](N)C(=O)O; Bta = N[C@@H](Cc1csc2ccccc12)C(=O)O; Cha = N[C@@H](CC1CCCCC1)C(=O)O; azaGly = NNC(=O)O

What is called IC50 is the concentration needed to halve the response being measured. Low readings indicate greater potency in that assay, high ones weaker potency in that assay.

T1 sequence (Q969F8 whole entry L364H): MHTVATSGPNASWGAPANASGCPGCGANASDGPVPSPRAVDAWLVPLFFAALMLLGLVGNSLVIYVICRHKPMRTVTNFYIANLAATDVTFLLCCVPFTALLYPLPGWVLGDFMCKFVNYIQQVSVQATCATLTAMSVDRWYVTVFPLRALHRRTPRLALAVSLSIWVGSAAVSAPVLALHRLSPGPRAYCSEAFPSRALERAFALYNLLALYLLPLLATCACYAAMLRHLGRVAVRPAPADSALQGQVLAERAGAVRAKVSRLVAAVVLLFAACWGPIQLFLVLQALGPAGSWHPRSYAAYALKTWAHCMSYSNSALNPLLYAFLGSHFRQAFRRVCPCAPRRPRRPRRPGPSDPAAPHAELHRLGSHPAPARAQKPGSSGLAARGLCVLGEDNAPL

At hOT7T175 [1], `CC(C)C[C@H](NC(=O)CNC(=O)[C@H](CC1CCCCC1)NC(=O)[C@H](CO)NC(=O)[C@H](CC(N)=O)NC(=O)[C@H](Cc1c[nH]c2ccccc12)NC(=O)[C@H](CC(N)=O)NC(=O)[C@@H](N)Cc1ccc(O)cc1)C(=O)N[C@@H](CCCNC(=N)N)C(=O)N[C@@H](Cc1ccccc1)C(N)=O` [Compound No. 156, Tyr-Asn-Trp-Asn-Ser-Cha-Gly-Leu-Arg-Phe-NH2] (H-YNWNS[Cha]GLRF-NH2) showed an IC50 of 49 nM. In addition, the “Specific Activity (intracellular Ca ion level-increasing activity)” value on hOT7T175 [2] is 2.

The compound `CNC(=N)NCCC[C@H](NC(=O)[C@H](CC(C)C)NC(=O)CNC(=O)[C@H](Cc1ccccc1)NC(=O)[C@H](CO)NC(=O)[C@H](CC(N)=O)NC(=O)[C@H](CO)NC(=O)[C@H](CC(N)=O)NC(=O)[C@H](N)Cc1ccc(O)cc1)C(=O)N[C@@H](Cc1ccccc1)C(N)=O` [Compound No. 170] (H-[dY]NSNSFGL[Arg(Me)]F-NH2; N-terminus assumed) had a half-maximal inhibitory concentration (IC50) at hOT7T175 [1] of 260 nM. Further, at hOT7T175 [2], the “Specific Activity (intracellular Ca ion level-increasing activity)” value is recorded as 1.

In turn, `CNC(=N)NCCC[C@H](NC(=O)[C@H](CC(C)C)NC(=O)CNC(=O)[C@H](Cc1ccccc1)NC(=O)[C@H](CO)NC(=O)[C@H](CC(N)=O)NC(=O)[C@H](CC1CCCCC1)NC(=O)[C@H](CC(N)=O)NC(=O)[C@H](N)Cc1ccc(O)cc1)C(=O)N[C@@H](Cc1ccccc1)C(N)=O` [Compound No. 171, D-Tyr-Asn-Cha-Asn-Ser-Phe-Gly-Leu-Arg(Me)-Phe-NH2] (H-[dY]N[Cha]NSFGL[Arg(Me)]F-NH2) gave a half-inhibitory concentration (IC50) at hOT7T175 [1] of 110 nM. Also, the “Specific Activity (intracellular Ca ion level-increasing activity)” value on hOT7T175 [2] came out at 10.

For `CNC(=N)NCCC[C@H](NC(=O)[C@H](CC(C)C)NC(=O)CNC(=O)[C@H](CC1CCCCC1)NC(=O)[C@H](CO)NC(=O)[C@H](CC(N)=O)NC(=O)[C@H](CC1CCCCC1)NC(=O)[C@H](CC(N)=O)NC(=O)[C@H](N)Cc1ccc(O)cc1)C(=O)N[C@@H](Cc1c[nH]c2ccccc12)C(N)=O` [Compound No. 182, D-Tyr-Asn-Cha-Asn-Ser-Cha-Gly-Leu-Arg(Me)-Trp-NH2] (H-[dY]N[Cha]NS[Cha]GL[Arg(Me)]W-NH2), the IC50 at hOT7T175 [1] was 98 nM. For the same compound, the “Specific Activity (intracellular Ca ion level-increasing activity)” value at hOT7T175 [2] is reported as 5.

`CC(C)C[C@H](NC(=O)CNC(=O)[C@H](Cc1ccccc1)NC(=O)[C@H](CO)NC(=O)[C@H](CC(N)=O)NC(=O)[C@H](Cc1c[nH]c2ccccc12)NC(=O)[C@H](CC(N)=O)NC(=O)[C@@H](N)Cc1ccc(O)cc1)C(=O)N[C@@H](CCCNC(=N)N)C(=O)N[C@@H](Cc1csc2ccccc12)C(N)=O` [Compound No. 189] (H-YNWNSFGLR[Bta]-NH2; N-terminus assumed) had an IC50 at hOT7T175 [1] of 230 nM. At hOT7T175 [2], the “Specific Activity (intracellular Ca ion level-increasing activity)” value is 10.

On hOT7T175 [1], `CC(C)C[C@H](NC(=O)CNC(=O)[C@H](Cc1ccccc1)NC(=O)[C@H](CO)NC(=O)[C@H](CC(N)=O)NC(=O)[C@H](Cc1c[nH]c2ccccc12)NC(=O)[C@H](CC(N)=O)NC(=O)[C@@H](N)Cc1ccc(O)cc1)C(=O)N[C@@H](CCCNC(=N)N)C(=O)N[C@@H](Cc1ccc(Cl)c(Cl)c1)C(N)=O` [Compound No. 199] displayed a 50% inhibitory concentration (IC50) of 470 nM. Besides, on hOT7T175 [2], the “Specific Activity (intracellular Ca ion level-increasing activity)” value worked out at 3.

At hOT7T175 [1], `CC(C)C[C@H](NC(=O)CNC(=O)[C@H](Cc1ccccc1)NC(=O)[C@H](CO)NC(=O)[C@H](CC(N)=O)NC(=O)[C@H](Cc1c[nH]c2ccccc12)NC(=O)[C@H](CC(N)=O)NC(=O)[C@@H](N)Cc1ccc(O)cc1)C(=O)N[C@@H](CCCNC(=N)N)C(=O)N[C@@H](Cc1cccc(C(F)(F)F)c1)C(N)=O` [Compound No. 200] yielded a 50% inhibitory concentration (IC50) of 340 nM. For the same compound, the “Specific Activity (intracellular Ca ion level-increasing activity)” value at hOT7T175 [2] is given as 10.

On hOT7T175 [1], `CNC(=N)NCCC[C@H](NC(=O)[C@H](CC(C)C)NC(=O)CNC(=O)[C@H](Cc1ccccc1)NC(=O)[C@H](CO)NC(=O)[C@H](CC(N)=O)NC(=O)[C@@H](NC(=O)[C@H](CC(N)=O)NC(=O)[C@H](N)Cc1ccc(O)cc1)[C@@H](C)O)C(=O)N[C@@H](Cc1ccccc1)C(N)=O` [Compound No. 205] (H-[dY]NTNSFGL[Arg(Me)]F-NH2) displayed a 50% inhibitory concentration (IC50) of 260 nM. Besides, the “Specific Activity (intracellular Ca ion level-increasing activity)” value on hOT7T175 [2] was 10.

For `CNC(=N)NCCC[C@H](NC(=O)[C@@H](NC(=O)CNC(=O)[C@H](Cc1ccccc1)NC(=O)[C@H](CO)NC(=O)[C@H](CC(N)=O)NC(=O)[C@H](Cc1c[nH]c2ccccc12)NC(=O)[C@H](CC(N)=O)NC(=O)[C@H](N)Cc1ccc(O)cc1)C(C)C)C(=O)N[C@@H](Cc1ccccc1)C(N)=O` [Compound No. 213] (H-[dY]NWNSFGV[Arg(Me)]F-NH2), at hOT7T175 [1], the IC50 worked out at 190 nM. Moreover, the “Specific Activity (intracellular Ca ion level-increasing activity)” value on hOT7T175 [2] was found to be 2.

As to `CCNC(=N)NCCC[C@H](NC(=O)[C@H](CC(C)C)NC(=O)CNC(=O)[C@H](Cc1ccccc1)NC(=O)[C@H](CO)NC(=O)[C@H](CC(N)=O)NC(=O)[C@H](Cc1c[nH]c2ccccc12)NC(=O)[C@H](CC(N)=O)NC(=O)[C@@H](N)Cc1ccc(O)cc1)C(=O)N[C@@H](Cc1ccccc1)C(N)=O` [Compound No. 220], the IC50 at hOT7T175 [1] came out at 330 nM. Moreover, the “Specific Activity (intracellular Ca ion level-increasing activity)” value at hOT7T175 [2] is reported as 5.

In the case of `CNC(=N)NCCC[C@H](NC(=O)[C@H](CC(C)C)NC(=O)NNC(=O)[C@H](Cc1ccccc1)NC(=O)[C@H](CO)NC(=O)[C@H](CC(N)=O)NC(=O)[C@H](Cc1c[nH]c2ccccc12)NC(=O)[C@H](N)Cc1ccc(O)cc1)C(=O)N[C@@H](Cc1ccccc1)C(N)=O` [Compound No. 222, D-Tyr-Trp-Asn-Ser-Phe-AzaGly-Leu-Arg(Me)-Phe-NH2] (H-[dY]WNSF[azaGly]L[Arg(Me)]F-NH2), the IC50 at hOT7T175 [1] was determined as 33 nM. In addition, the “Specific Activity (intracellular Ca ion level-increasing activity)” value at hOT7T175 [2] amounted to 5.

In turn, `CNC(=N)NCCC[C@H](NC(=O)[C@H](CC(C)C)NC(=O)CNC(=O)[C@H](Cc1ccccc1)NC(=O)[C@H](CO)NC(=O)[C@H](CC(N)=O)NC(=O)[C@@H](Cc1c[nH]c2ccccc12)NC(=O)[C@H](N)Cc1ccc(O)cc1)C(=O)N[C@@H](Cc1ccccc1)C(N)=O` [Compound No. 224, D-Tyr-D-Trp-Asn-Ser-Phe-Gly-Leu-Arg(Me)-Phe-NH2] (H-[dY][dW]NSFGL[Arg(Me)]F-NH2) returned an IC50 on hOT7T175 [1] of 140 nM. Besides, the “Specific Activity (intracellular Ca ion level-increasing activity)” value on hOT7T175 [2] was 2 and 1.

With `CC[C@H](C)[C@H](NC(=O)[C@H](N)Cc1ccc(O)cc1)C(=O)N[C@@H](CC(N)=O)C(=O)N[C@@H](CO)C(=O)N[C@@H](Cc1ccccc1)C(=O)NCC(=O)N[C@@H](CC(C)C)C(=O)N[C@@H](CCCNC(=N)NC)C(=O)N[C@@H](Cc1ccccc1)C(N)=O` [Compound No. 228] (H-[dY]INSFGL[Arg(Me)]F-NH2), the concentration for half-maximal inhibition (IC50) on hOT7T175 [1] turned out to be 40 nM. For the same compound, at hOT7T175 [2], the “Specific Activity (intracellular Ca ion level-increasing activity)” value stood at 5.

In the case of `CC[C@H](C)[C@H](NC(=O)[C@H](CC(N)=O)NC(=O)[C@H](N)Cc1ccc(O)cc1)C(=O)N[C@@H](CC(N)=O)C(=O)N[C@@H](CO)C(=O)N[C@@H](Cc1ccccc1)C(=O)NNC(=O)N[C@@H](CC(C)C)C(=O)N[C@@H](CCCNC(=N)NC)C(=O)N[C@@H](Cc1ccccc1)C(N)=O` [Compound No. 233, D-Tyr-Asn-Ile-Asn-Ser-Phe-AzaGly-Leu-Arg(Me)-Phe-NH2] (H-[dY]NINSF[azaGly]L[Arg(Me)]F-NH2), at hOT7T175 [1], the concentration for half-maximal inhibition (IC50) is 23 nM. Moreover, on hOT7T175 [2], the “Specific Activity (intracellular Ca ion level-increasing activity)” value is reported as 1.
